Test results: BindingDB's records for doi:10.1016/j.bmcl.2019.126678 (Vanderbilt University, 2019)

What was measured:
[1] = molecular target: Muscarinic acetylcholine receptor M4 (human) (UniProt P08173); assay: Positive allosteric modulation of human M4 receptor expressed in CHO cells co-expressing Gqi5 assessed as increase in acetylcholine-induced calcium mobilization incubated with EC20 ACh for 140 secs and subsequent EC80 Ach addition further incubated for 120 secs by Fluo-4-AM dye based fluorescence assay
[2] = molecular target: Muscarinic acetylcholine receptor M4 (rat); assay: Positive allosteric modulation of rat M4 receptor expressed in CHO cells co-expressing Gqi5 assessed as increase in acetylcholine-induced calcium mobilization incubated with EC20 ACh for 140 secs and subsequent EC80 Ach addition further incubated for 120 secs by Fluo-4-AM dye based fluorescence assay

Sequence of Muscarinic acetylcholine receptor M4 (human) (P08173 whole entry, looked up): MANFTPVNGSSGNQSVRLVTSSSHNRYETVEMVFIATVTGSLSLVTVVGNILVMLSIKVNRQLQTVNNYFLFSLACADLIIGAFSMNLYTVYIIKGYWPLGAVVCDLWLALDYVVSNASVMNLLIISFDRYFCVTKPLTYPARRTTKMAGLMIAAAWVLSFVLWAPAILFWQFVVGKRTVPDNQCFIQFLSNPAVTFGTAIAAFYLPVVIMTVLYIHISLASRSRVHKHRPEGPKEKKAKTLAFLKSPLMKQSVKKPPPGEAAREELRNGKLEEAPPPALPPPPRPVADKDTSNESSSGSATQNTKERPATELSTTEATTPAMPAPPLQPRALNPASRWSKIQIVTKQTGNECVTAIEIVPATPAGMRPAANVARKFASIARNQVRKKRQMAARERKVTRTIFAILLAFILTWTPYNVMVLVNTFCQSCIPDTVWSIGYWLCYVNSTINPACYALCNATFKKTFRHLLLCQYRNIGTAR

Compound	EC50 [1]	EC50 [2]
Cc1nnc2ccc(C(=O)NC3CN(c4cccc(C(F)(F)F)n4)C3)cc2c1C	3360 nM	–
Cc1nnc2ccc(C(=O)NC3CN(c4cccc(F)n4)C3)cc2c1C	668 nM	–
Cc1nnc2ccc(C(=O)NC3CN(c4ncc(C#N)cc4Cl)C3)cc2c1C	304 nM	138 nM
Cc1nnc2ccc(C(=O)NC3CN(c4ncc(C(F)(F)F)cn4)C3)cc2c1C	> 10000 nM	–
Cc1nnc2ccc(C(=O)NC3CN(c4ncc(OC(C)C)cn4)C3)cc2c1C	3200 nM	–
Cc1nnc2ccc(C(=O)NC3CN(c4ccc(C#N)cn4)C3)cc2c1C	1030 nM	–
Cc1nnc2ccc(C(=O)NC3CN(c4ncc(C5CC5)cc4Cl)C3)cc2c1C	1390 nM	–
Cc1nnc2ccc(C(=O)NC3CN(c4ncc(C(F)(F)F)cc4Cl)C3)cc2c1C	2630 nM	–
Cc1nnc2ccc(C(=O)NC3CN(c4cccc(Cl)n4)C3)cc2c1C	1320 nM	–
Cc1nnc2ccc(C(=O)NC3CN(c4ncccc4F)C3)cc2c1C	1220 nM	–
Cc1nnc2ccc(C(=O)NC3CN(c4ncc(F)cc4Cl)C3)cc2c1C	464 nM	174 nM
COc1cc(N2CC(NC(=O)c3ccc4nnc(C)c(C)c4c3)C2)c(Cl)cn1	373 nM	356 nM
Cc1nnc2ccc(C(=O)NC3CN(c4ccc(Cl)cn4)C3)cc2c1C	1270 nM	–
Cc1nnc2ccc(C(=O)NC3CN(c4ncccc4Cl)C3)cc2c1C	952 nM	–
Cc1nnc2ccc(C(=O)NC3CN(c4cc(Cl)ncc4Cl)C3)cc2c1C	116 nM	230 nM
Cc1nnc2ccc(C(=O)NC3CN(c4ccc(F)c(F)c4)C3)cc2c1C	737 nM	–
Cc1nnc2ccc(C(=O)NC3CN(c4ncc(Cl)cc4F)C3)cc2c1C	648 nM	82 nM
Cc1nnc2ccc(C(=O)NC3CN(c4cnc(C5CC5)cn4)C3)cc2c1C	2510 nM	–
Cc1nnc2ccc(C(=O)NC3CN(c4ccc(OC(F)F)nc4)C3)cc2c1C	1460 nM	–
